Paper PMC9312958, “A Novel and Selective Dopamine Transporter Inhibitor, (S)-MK-26, Promotes Hippocampal Synaptic Plasticity and Restores Effort-Related Motivational Dysfunctions” (Biomolecules, 2022)

Test system: aged rats
Test: Hole-board test, spatial reference memory
Assay type: in vivo, rat
Excerpt: In order to examine the effect of (S)-MK-26 on hippocampus-dependent spatial reference memory, we used the standardized hole-board test (animal experiments conducted under BMBWF-66.009/235/V/3b/2018 regulations) following published procedures with minor modifications. In brief, food restriction and controlled body weight loss with it (until steadily reaching 85% of the average body weight sustained during ad libitum feeding) was initially imposed for this experimental study as cognitive/behavioral incentive. A black plastic hole-board maze (1 m^2 base) with 16 symmetrically distributed holes located at the floor (7 cm in diameter and depth) and walls enriched with spatial cues was used (See Figure 4). Accessory distal cues were also visible in the walls of the experimental room. Dustless precision food pellets (45 mg, Bioserv®, Flemington, NJ, USA) were placed as motivational baits in four randomly designated holes, unchanged throughout the test. Several inaccessible pellets were also placed all across the entire area immediately below all the holes of the board maze in order to induce a uniform distribution of the food smell and thus preventing the acute orientating response of the sense of smell from prevailing over the evocation of spatial memories associated with the location of accessible food. […] The behavioral experiments were conducted in a noise-isolated room; all sessions were monitored by a distal overhead conventional digital camera and behavioral data digitalized using the ANY-Maze video tracking system (Stoelting Europe, 8-Terenure Place, Terenure, Dublin, D6W Y006, Ireland). Spatial memory performance was assessed from the number of errors made by the animal, that is, the number of times the animals visit unbaited holes (reference memory). […] Thus, from these measurements, an RMI value of “1” would constitute quantifiable indicator of optimal reference memory, with a performance without empty-hole visiting mistakes. […]

For `[O-][S@@+](Cc1cncs1)C(c1cccc(Cl)c1)c1cccc(Cl)c1` [(S)-MK-26, (S)-5-(((B(3-chlorophenyl)methyl)sulphinyl)methyl)thiazole], the “spatial reference memory (reference memory index)” value (10 mg/kg i.p. daily, vs Kolliphor) was “slight and transitory—yet statistically significant—enhancement of spatial reference memory”, the “exploratory activity (distance travelled) during H3 habituation session” value (10 mg/kg i.p., p = 0.0053) was “induced an increase in ecology-like exploratory activity” and the “number of hole dips” value (10 mg/kg i.p., vs Kolliphor) was “No differences”.
